In ChEMBL document CHEMBL1201862, “PubChem BioAssay data set” (2004):
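1) Cells in 96-well plates. 2) Compound, 48 h, 5 concentrations. 3) Linear interpolation between surrounding doses. 4) Unreached endpoint = highest concentration. The concentration for 50% growth inhibition is given as GI50.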 Calls of active or inactive are those of the source. Rule as the data show it: active = GI50 up to about 1.1 µM and inactive = higher.

Tests used:
Experiment in all cases: DTP human tumour cell line panel, 48 h
CCRF-CEM = test system: CCRF-CEM
K562 = test system: K562
IGROV-1 = test system: IGROV-1
SNB-19 = test system: SNB-19
TK-10 = test system: TK-10
LOX IMVI = test system: LOX IMVI
SF-295 = test system: SF-295
EKVX = test system: EKVX
SF-539 = test system: SF-539
U-251 = test system: U-251
UACC-257 = test system: UACC-257
MCF7 = test system: MCF7
OVCAR-3 = test system: OVCAR-3
A549 = test system: A549
HOP-62 = test system: HOP-62
SF-268 = test system: SF-268
DU-145 = test system: DU-145
T47D = test system: T47D
Hs-578T = test system: Hs-578T
XF498 = test system: XF498

Row | Structure (SMILES) | GI50 (CCRF-CEM) | GI50 (K562) | GI50 (IGROV-1) | GI50 (SNB-19) | GI50 (TK-10) | GI50 (LOX IMVI) | GI50 (SF-295) | GI50 (EKVX) | GI50 (SF-539) | GI50 (U-251) | GI50 (UACC-257) | GI50 (MCF7) | GI50 (OVCAR-3) | GI50 (A549) | GI50 (HOP-62) | GI50 (SF-268) | GI50 (DU-145) | GI50 (T47D) | GI50 (Hs-578T) | GI50 (XF498)
1 | CCn1cc(C(=O)O)c(=O)c2cc(F)c(N3CCN(CN4C(=O)/C(=N\c5ncc(Cc6cc(OC)c(OC)c(OC)c6)c(N)n5)c5cc(Cl)ccc54)CC3)cc21 | 91 µM (inactive) | 15.9 µM (inactive) | 8.24 µM (inactive) | > 100 µM (inactive) | 83 µM (inactive) | > 100 µM (inactive) | > 100 µM (inactive) | > 100 µM (inactive) | > 100 µM (inactive) | 61.4 µM (inactive) | > 100 µM (inactive) | 82 µM (inactive) | > 100 µM (inactive) | > 100 µM (inactive) | > 100 µM (inactive) | > 100 µM (inactive) | > 100 µM (inactive) | > 100 µM (inactive) | > 100 µM (inactive) | –
2 | CC1(C)C2CCC1(CS(=O)(=O)Nc1ccccc1)C(=O)C2 (stereo not given) | 11.7 µM (inactive) | > 100 µM (inactive) | > 100 µM (inactive) | > 100 µM (inactive) | > 100 µM (inactive) | > 100 µM (inactive) | > 100 µM (inactive) | > 100 µM (inactive) | > 100 µM (inactive) | > 100 µM (inactive) | > 100 µM (inactive) | > 100 µM (inactive) | > 100 µM (inactive) | > 100 µM (inactive) | > 100 µM (inactive) | > 100 µM (inactive) | > 100 µM (inactive) | > 100 µM (inactive) | > 100 µM (inactive) | –
3 | CSc1cc(N)ccc1/N=N/c1ccc(S(N)(=O)=O)cc1 | 27.3 µM (inactive) | 38.1 µM (inactive) | 23.1 µM (inactive) | 55.3 µM (inactive) | 29.4 µM (inactive) | 29.6 µM (inactive) | 22.1 µM (inactive) | 31 µM (inactive) | 31.5 µM (inactive) | 26.9 µM (inactive) | 80 µM (inactive) | 37.3 µM (inactive) | 25.1 µM (inactive) | 22.1 µM (inactive) | 29.4 µM (inactive) | 37.8 µM (inactive) | 34.9 µM (inactive) | 18.8 µM (inactive) | 23.5 µM (inactive) | –
4 | COC(=O)c1ccccc1CC1Cc2cc3c(cc2C1=O)CCC3 (stereo not given) | 6.53 µM (inactive) | 3.69 µM (inactive) | 16 µM (inactive) | 21.4 µM (inactive) | 16.5 µM (inactive) | 7.31 µM (inactive) | 14.6 µM (inactive) | 25.8 µM (inactive) | 16.8 µM (inactive) | 10.4 µM (inactive) | 19.3 µM (inactive) | 14.6 µM (inactive) | 13.1 µM (inactive) | 20.3 µM (inactive) | 17.1 µM (inactive) | 29.6 µM (inactive) | 27.7 µM (inactive) | 16 µM (inactive) | 19.6 µM (inactive) | –
5 | NNC(=O)CCC(=O)Nc1ccc(Cl)cc1Cl | > 100 µM (inactive) | 19.1 µM (inactive) | > 100 µM (inactive) | > 100 µM (inactive) | > 100 µM (inactive) | 43.8 µM (inactive) | > 100 µM (inactive) | – | > 100 µM (inactive) | > 100 µM (inactive) | > 100 µM (inactive) | – | > 100 µM (inactive) | > 100 µM (inactive) | > 100 µM (inactive) | > 100 µM (inactive) | – | – | – | > 100 µM (inactive)
6 | COC(=O)N/N=C/c1oc(-c2cccc([N+](=O)[O-])c2)c(-c2cccc([N+](=O)[O-])c2)c1[N+](=O)[O-] | 22.1 µM (inactive) | 26.5 µM (inactive) | > 100 µM (inactive) | > 100 µM (inactive) | > 100 µM (inactive) | 37.2 µM (inactive) | > 100 µM (inactive) | > 100 µM (inactive) | – | > 100 µM (inactive) | > 100 µM (inactive) | – | > 100 µM (inactive) | > 100 µM (inactive) | > 100 µM (inactive) | > 100 µM (inactive) | – | – | – | > 100 µM (inactive)
7 | CN(C)C1=NC2=S(SC(Nc3ccccc3)=N2)S1 (stereo not given) | 15.5 µM (inactive) | 6.62 µM (inactive) | 15.7 µM (inactive) | 26.3 µM (inactive) | 27.9 µM (inactive) | 22.7 µM (inactive) | 24.5 µM (inactive) | 12.9 µM (inactive) | 20.2 µM (inactive) | 19.4 µM (inactive) | 7.8 µM (inactive) | – | – | 7.85 µM (inactive) | 24.2 µM (inactive) | 34.5 µM (inactive) | – | – | – | 14 µM (inactive)
8 | CN(C(=O)c1ccc(Cl)s1)C(=S)N(C)C(=O)c1ccc(Cl)s1 | > 10 µM (inactive) | > 10 µM (inactive) | > 10 µM (inactive) | > 10 µM (inactive) | > 10 µM (inactive) | > 10 µM (inactive) | > 10 µM (inactive) | > 10 µM (inactive) | > 10 µM (inactive) | > 10 µM (inactive) | > 10 µM (inactive) | > 10 µM (inactive) | > 10 µM (inactive) | > 10 µM (inactive) | > 10 µM (inactive) | > 10 µM (inactive) | > 10 µM (inactive) | > 10 µM (inactive) | > 10 µM (inactive) | –
9 | CC(=O)N(O)[C@@H]1CC[C@H](n2cnc3c(N)ncnc32)C1 | > 100 µM (inactive) | > 100 µM (inactive) | > 100 µM (inactive) | > 100 µM (inactive) | > 100 µM (inactive) | > 100 µM (inactive) | > 100 µM (inactive) | > 100 µM (inactive) | > 100 µM (inactive) | > 100 µM (inactive) | > 100 µM (inactive) | > 100 µM (inactive) | > 100 µM (inactive) | > 100 µM (inactive) | > 100 µM (inactive) | > 100 µM (inactive) | > 100 µM (inactive) | > 100 µM (inactive) | > 100 µM (inactive) | –
10 | Cc1ccc(C(=O)c2[nH]c(Nc3cc(C)ccn3)c(C(=S)Nc3ccccc3)c2N)cc1 | > 100 µM (inactive) | > 100 µM (inactive) | > 100 µM (inactive) | > 100 µM (inactive) | > 100 µM (inactive) | > 100 µM (inactive) | > 100 µM (inactive) | > 100 µM (inactive) | > 100 µM (inactive) | > 100 µM (inactive) | > 100 µM (inactive) | 87.5 µM (inactive) | > 100 µM (inactive) | > 100 µM (inactive) | > 100 µM (inactive) | > 100 µM (inactive) | > 100 µM (inactive) | > 100 µM (inactive) | > 100 µM (inactive) | –
11 | CCCCCC(=O)OC[n+]1ccc2c(C)c3[nH]c4ccc(OC)cc4c3c(C)c2c1 | 0.0805 µM (active) | 0.0632 µM (active) | 0.234 µM (active) | 0.189 µM (active) | 2.55 µM (inactive) | 0.224 µM (active) | 0.395 µM (active) | 0.925 µM (active) | 0.238 µM (active) | 0.321 µM (active) | 1.28 µM (inactive) | 0.225 µM (active) | > 100 µM (inactive) | 0.284 µM (active) | 0.586 µM (active) | 0.211 µM (active) | 0.505 µM (active) | 1.02 µM (active) | 1.11 µM (active) | –
12 | CCCCNC(=S)OCCC(C)CCCC(C)C (stereo not given) | > 100 µM (inactive) | > 100 µM (inactive) | > 100 µM (inactive) | > 100 µM (inactive) | > 100 µM (inactive) | > 100 µM (inactive) | > 100 µM (inactive) | > 100 µM (inactive) | > 100 µM (inactive) | > 100 µM (inactive) | > 100 µM (inactive) | – | – | > 100 µM (inactive) | > 100 µM (inactive) | > 100 µM (inactive) | – | – | – | > 100 µM (inactive)
13 | CCN(CC)CC(=O)NC1c2ccccc2Oc2ccccc21 | > 100 µM (inactive) | > 100 µM (inactive) | > 100 µM (inactive) | > 100 µM (inactive) | > 100 µM (inactive) | > 100 µM (inactive) | – | > 100 µM (inactive) | > 100 µM (inactive) | > 100 µM (inactive) | > 100 µM (inactive) | – | – | > 100 µM (inactive) | > 100 µM (inactive) | > 100 µM (inactive) | – | – | – | > 100 µM (inactive)
14 | O=C(CN1CCN(c2cccc(Cl)c2)CC1)N1CCc2c([nH]c3ccccc23)C1c1cccnc1 (stereo not given) | 3.15 µM (inactive) | 3.03 µM (inactive) | 22.4 µM (inactive) | 26.1 µM (inactive) | 26.2 µM (inactive) | – | 8.53 µM (inactive) | 16.8 µM (inactive) | 15.5 µM (inactive) | 10.2 µM (inactive) | 5.41 µM (inactive) | – | 15.5 µM (inactive) | 7.13 µM (inactive) | 14.7 µM (inactive) | 13.1 µM (inactive) | – | – | – | 12.2 µM (inactive)
15 | CCCCCCCCCCCCCCCCOCC(COP(=O)(O)OCC1OC(n2cc(CC)c(=O)[nH]c2=O)CC1O)OC(=O)CCCCCCCCCCCCCCC (stereo not given) | > 100 µM (inactive) | > 100 µM (inactive) | > 100 µM (inactive) | > 100 µM (inactive) | > 100 µM (inactive) | > 100 µM (inactive) | > 100 µM (inactive) | > 100 µM (inactive) | > 100 µM (inactive) | > 100 µM (inactive) | > 100 µM (inactive) | > 100 µM (inactive) | > 100 µM (inactive) | > 100 µM (inactive) | > 100 µM (inactive) | > 100 µM (inactive) | > 100 µM (inactive) | > 100 µM (inactive) | > 100 µM (inactive) | –
16 | CSc1cccc(-n2c3nc(=O)n(C)c(=O)c-3nc3ccccc32)c1 | 11 µM (inactive) | 12.5 µM (inactive) | 13.6 µM (inactive) | 12.9 µM (inactive) | 21.8 µM (inactive) | – | 10.8 µM (inactive) | 19.3 µM (inactive) | 2.16 µM (inactive) | 7.98 µM (inactive) | 4.94 µM (inactive) | – | 2.26 µM (inactive) | 2.65 µM (inactive) | 18.1 µM (inactive) | 16.6 µM (inactive) | – | – | – | 3.51 µM (inactive)
